Consider 2 compounds from patent publication US20160068902A1, “SEQUENCING NUCLEIC ACIDS BY ENZYME ACTIVATION” (CAERUS MOLECULAR DIAGNOSTICS, priority 2013, published 2016).

The test system of the assay is maltose binding protein/lactamase enzyme (switch enzyme). Description: Lactamase switch enzyme activity monitored with chromogenic substrate nitrocefin. In kind it is biochemical. As to conditions: for activation of the switch protein: without dephosphorylation; for activation of the switch protein / activation of the switch protein after dephosphorylation: FIG. 4E; for activation of the switch protein after dephosphorylation: dephosphorylated with shrimp alkaline phosphatase. The source says: A maltose with the 1′ hydroxyl attached to the terminal phosphate of a dNTP should not bind effectively to the switch and so should not activate the maltose binding protein/lactamase enzyme^12. The conjugated maltose/dNTP can be used to detect incorporation of dNTP during a cycle of sequencing by synthesis: the enzyme is only activated after incorporation of a dNTP released phospho-maltose which is then be dephosphorylated to yield the maltose activator. […] Maltose monohydrate (1.44 g) was dissolved in 1 ml of water titrated to pH 12.5 by addition of NaOH and heated to 80° C. Trisodium trimetaphosphate (0.31 g) was added and the mixture reacted at room temperature for 25 hours. The maltose-triphosphate product was purified by anion exchange chromatography on a Dowex 1-X2 resin and eluted with 300 mM KCl.
The switch protein was expressed and purified as previously described^21 and enzyme activity was monitored using the chromogenic substrate nitrocefin. […] Addition of maltose increased the enzyme activity more than 210-fold.

Turning to `OC[C@H]1O[C@H](O[C@H]2[C@H](O)[C@@H](O)C(O)O[C@@H]2CO)[C@H](O)[C@@H](O)[C@@H]1O` (mixture of isomers) [maltose], the “activation of the switch protein” value is “activates the protein”. Where the note is “10 nM switch enzyme, nitrocefin hydrolysis, FIG. 4A”, the “increase of enzyme activity on addition of maltose” value is listed as “more than 210 fold”. Moreover, where the note is “FIG. 4(A) legend”, the “Lactamase switch hydrolyses nitrocefin faster after maltose addition” value was 210 times.
maltose triphosphate: the “activation of the switch protein after dephosphorylation” value is reported as “activation levels similar to that of maltose” and the “activation of the switch protein” value was “no appreciable activation”. Also, the “activation of the switch protein after dephosphorylation” value (listed as Maltose triphosphate) is “significant activation of the lactamase switch only upon dephosphorylation”.
